{
  "source": "paper PMC8843100",
  "about": "“Development of newly synthesised quinazolinone-based CDK2 inhibitors with potent efficacy against melanoma” (Journal of Enzyme Inhibition and Medicinal Chemistry, 2022)",
  "key": {"[1]": {"tested_on": "melanoma MDA-MB-435 cells", "assay": "Cell cycle analysis, PI flow cytometry", "format": "cell-based, human", "conditions": "MDA-MB-435, after 24 h at IC50 concentration", "procedure": "10% of the culture medium volume. Cultures were returned to incubator for 2–4 h. After the incubation period, cultures were removed from incubator and the resulting formazan crystals were dissolved by adding an amount of MTT solubilization solution [M-8910] equal to the original culture medium volume. Dissolution is enhanced by gentle mixing in a gyratory shaker. Then the absorbance is measured spectrophotometrically at a wavelength of 450 nm. The absorbance of multiwell plates was measured at 690 nm and subtracted from the 450 nm measurement. IC50 values (concentration of sample causing 50% loss of cell proliferation of the vehicle control) were calculated using non-linear regression curve fitting of the dose response plots on GraphPad Prism 7.0 software. Data presented are the results of at least three independent experiments. The results of these studies are presented as mean IC50 (μM) ± standard deviation (SD).\n(§1) Melanoma MDA -MB-435 and glioblastoma SNB-75 cells were treated with the quinazolinone 5c for 24 h (at its IC50 concentration), and then cells were washed twice with ice - cold phosphate buffered saline (PBS). Consequently, the treated cells were collected by centrifugation, fixed in ice -cold 70% (v/v) ethanol, washed with PBS, re -suspended with 100 μg/mL RNase, stained with 40 μg/mL propidium iodide (PI), and analyzed by flow cytometry using FACS Calibur (Becton Dickinson, BD, Franklin Lakes, NJ, USA). The cell cycle distributions were calculated using Cell Quest software 5.1 (Becton Dickinson). […]"}, "[2]": {"tested_on": "melanoma MDA-MB-435 cells", "assay": "Apoptosis determination, Annexin V-FITC/PI", "format": "cell-based, human", "conditions": "MDA-MB-435, 24 h at IC50 concentration", "procedure": "The apoptotic activity of quinazolinone 5c in melanoma MDA-MB-435 and glioblastoma SNB-75 cell lines was further studied using Annexin V-FITC assay. […]\n4. Apoptosis determination\nAnnexin V fluorescein isothiocyanate (FITC)/PI apoptosis detection kit (BD Biosciences) was used according to the manufacturer’s instructions to measure the apoptotic activity of compound 5c. Melanoma MDA -MB-435 and glioblastoma SNB -75 cells were cultured to a monolayer then treated with the quinazolinone 5c at its IC50 concentration. The cells then were collected by trypsinisation and 0.5×10^6 cells were washed twice with PBS and stained with 5 µL Annexin V-FITC and 5 µL PI in 1Xbinding buffe r for 15 min. at room temperature in the dark.\nAnalyses were performed using FACS Calibur flow cytometer (BD Biosciences, San Jose, CA)."}, "[3]": {"tested_on": "glioblastoma SNB-75 cells", "assay": "Cell cycle analysis, PI flow cytometry", "format": "cell-based, human", "conditions": "SNB-75, after 24 h at IC50 concentration", "procedure": "as §1"}, "[4]": {"tested_on": "glioblastoma cell line SNB-75", "assay": "Detection of IC50, MTT assay", "format": "cell-based", "conditions": "Homo sapiens, read-out: IC50 (µM)±SD, 50% inhibition of cell viability, Glioblastoma SNB-75, 48 h", "procedure": "2. Detection of IC50 against MDA-MB-435, SNB-75 cell lines and normal cell line WI -38.\nAntiproliferative activities of 5c in melanoma cell line MDA-MB-435, glioblastoma cell line SNB-75 and normal cell line WI -38 and that of 8a in melanoma cell line MDA-MB-435 and normal cell line WI-38 were measured spectrophotometrically using in vitro MTT based toxicology assay kit (catalog no. M -5655, M-8910) (Sigma Aldrich), according to the manufacturer’s protocol. The three examined cell lin es were obtained from American Type Culture Collection (ATCC). Briefly, cells were platted (cells density 1.2 – 1.8 × 10,000 cells/well) in a volume of 100 µl complete growth medium + 100 μl of the tested compound per well in a 96-well […]\nsalt solution without phenol red and serum."}},
  "data": [
    {"smiles": "O=c1c2ccccc2nc(COc2ccccc2)n1NS(=O)(=O)c1ccc(Cl)cc1", "note": "[Compound 5c, 4-chloro-N-(4-oxo-2-(phenoxymethyl)quinazolin-3(4H)-yl)benzenesulfonamide]", "values": [
      {"measurement": "%G0-G1", "setting": "[1]", "value": 55.29, "unit": "%"},
      {"measurement": "%G2/M", "setting": "[1]", "value": 3.74, "unit": "%"},
      {"measurement": "%Pre-G1", "setting": "[1]", "value": 28.65, "unit": "%"},
      {"measurement": "%S", "setting": "[1]", "value": 40.97, "unit": "%"},
      {"measurement": "Comment (cell cycle)", "setting": "[1]", "value": "Pre G1 apoptosis and cell growth arrest at S"},
      {"measurement": "% Necrosis", "setting": "[2]", "value": 13.47, "unit": "%"},
      {"measurement": "%Apoptosis Early", "setting": "[2]", "value": 4.53, "unit": "%"},
      {"measurement": "%Apoptosis Late", "setting": "[2]", "value": 10.65, "unit": "%"},
      {"measurement": "%Apoptosis Total", "setting": "[2]", "value": 28.65, "unit": "%"},
      {"measurement": "%G0-G1", "setting": "[3]", "value": 39.53, "unit": "%"},
      {"measurement": "%G2/M", "setting": "[3]", "value": 31.78, "unit": "%"},
      {"measurement": "%Pre-G1", "setting": "[3]", "value": 44.22, "unit": "%"},
      {"measurement": "%S", "setting": "[3]", "value": 28.69, "unit": "%"},
      {"measurement": "Comment (cell cycle)", "setting": "[3]", "value": "Pre G1 apoptosis and cell growth arrest at G2/M"},
      {"measurement": "IC50", "setting": "[4]", "value": "8.62 ± 0.13", "unit": "µM"}
    ]}
  ]
}
